Experimental data reported in PubChem BioAssay (NCI).
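Interpolation was linear, between the two tested concentrations surrounding the appropriate level; five concentrations were tested over 48 hours in 96-well plates. Here, GI50 denotes the concentration required for 50% inhibition of growth. TGI: concentration producing complete growth inhibition.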

Key:
Test in all cases: NCI tumour cell line growth inhibition, 48 h
MDA-MB-231 breast = tested on: MDA-MB-231 breast
SF-539 CNS = tested on: SF-539 CNS
OVCAR-8 ovarian = tested on: OVCAR-8 ovarian
NCI-H522 lung = tested on: NCI-H522 lung
A549 NSCLC = tested on: A549 NSCLC
RXF 393 renal = tested on: RXF 393 renal
UACC-257 melanoma = tested on: UACC-257 melanoma
K-562 leukemia = tested on: K-562 leukemia
BT-549 breast = tested on: BT-549 breast
COLO 205 colon = tested on: COLO 205 colon
SF-295 CNS = tested on: SF-295 CNS
IGROV1 ovarian = tested on: IGROV1 ovarian
OVCAR-3 ovarian = tested on: OVCAR-3 ovarian
CCRF-CEM leukemia = tested on: CCRF-CEM leukemia
NCI-H226 lung = tested on: NCI-H226 lung
ACHN renal = tested on: ACHN renal
HOP-62 NSCLC = tested on: HOP-62 NSCLC
HCC-2998 colon = tested on: HCC-2998 colon
HS 578T breast = tested on: HS 578T breast
UACC-62 melanoma = tested on: UACC-62 melanoma
HL-60(TB) leukemia = tested on: HL-60(TB) leukemia
HCT-116 colon = tested on: HCT-116 colon
HCT-15 colon = tested on: HCT-15 colon
SK-MEL-2 melanoma = tested on: SK-MEL-2 melanoma
MOLT-4 leukemia = tested on: MOLT-4 leukemia
DU-145 prostate = tested on: DU-145 prostate
LOX IMVI melanoma = tested on: LOX IMVI melanoma
TK-10 renal = tested on: TK-10 renal
MALME-3M melanoma = tested on: MALME-3M melanoma
NCI-H460 lung = tested on: NCI-H460 lung
U251 CNS = tested on: U251 CNS
MDA-MB-435 = tested on: MDA-MB-435
MCF7 breast = tested on: MCF7 breast
CAKI-1 renal = tested on: CAKI-1 renal
786-0 renal = tested on: 786-0 renal
SNB-75 CNS = tested on: SNB-75 CNS
NCI-H23 lung = tested on: NCI-H23 lung
HT29 colon = tested on: HT29 colon
OVCAR-4 ovarian = tested on: OVCAR-4 ovarian
NCI/ADR-RES ovarian = tested on: NCI/ADR-RES ovarian
EKVX NSCLC = tested on: EKVX NSCLC
SN12C renal = tested on: SN12C renal
UO-31 renal = tested on: UO-31 renal
SK-MEL-28 melanoma = tested on: SK-MEL-28 melanoma
SR leukemia = tested on: SR leukemia
HOP-92 NSCLC = tested on: HOP-92 NSCLC
A498 renal = tested on: A498 renal
SK-OV-3 ovarian = tested on: SK-OV-3 ovarian
OVCAR-5 ovarian = tested on: OVCAR-5 ovarian
RPMI-8226 leukemia = tested on: RPMI-8226 leukemia
SF-268 CNS = tested on: SF-268 CNS
KM12 colon = tested on: KM12 colon
SNB-19 CNS = tested on: SNB-19 CNS
SK-MEL-5 melanoma = tested on: SK-MEL-5 melanoma
SW-620 colon = tested on: SW-620 colon
PC-3 prostate = tested on: PC-3 prostate
T-47D breast = tested on: T-47D breast

CS(=O)(=O)c1ccc(Oc2cc(F)cc(C#N)c2)c2c1[C@H](O)[C@H](F)[C@H]2F
GI50 (MDA-MB-231 breast): > 100 µM
TGI (MDA-MB-231 breast): > 100 µM
GI50 (SF-539 CNS): > 100 µM
TGI (SF-539 CNS): > 100 µM
GI50 (OVCAR-8 ovarian): > 100 µM
TGI (OVCAR-8 ovarian): > 100 µM
GI50 (NCI-H522 lung): > 100 µM
TGI (NCI-H522 lung): > 100 µM
GI50 (A549 NSCLC): > 100 µM
TGI (A549 NSCLC): > 100 µM
GI50 (RXF 393 renal): 2.53 µM
TGI (RXF 393 renal): > 100 µM
GI50 (UACC-257 melanoma): > 100 µM
TGI (UACC-257 melanoma): > 100 µM
GI50 (K-562 leukemia): > 100 µM
TGI (K-562 leukemia): > 100 µM
GI50 (BT-549 breast): > 100 µM
TGI (BT-549 breast): > 100 µM
GI50 (COLO 205 colon): > 100 µM
TGI (COLO 205 colon): > 100 µM
GI50 (SF-295 CNS): > 100 µM
TGI (SF-295 CNS): > 100 µM
GI50 (IGROV1 ovarian): > 100 µM
TGI (IGROV1 ovarian): > 100 µM
GI50 (OVCAR-3 ovarian): > 100 µM
TGI (OVCAR-3 ovarian): > 100 µM
GI50 (CCRF-CEM leukemia): > 100 µM
TGI (CCRF-CEM leukemia): > 100 µM
GI50 (NCI-H226 lung): > 100 µM
TGI (NCI-H226 lung): > 100 µM
GI50 (ACHN renal): > 100 µM
TGI (ACHN renal): > 100 µM
GI50 (HOP-62 NSCLC): > 100 µM
TGI (HOP-62 NSCLC): > 100 µM
GI50 (HCC-2998 colon): > 100 µM
TGI (HCC-2998 colon): > 100 µM
GI50 (HS 578T breast): > 100 µM
TGI (HS 578T breast): > 100 µM
GI50 (UACC-62 melanoma): > 100 µM
TGI (UACC-62 melanoma): > 100 µM
GI50 (HL-60(TB) leukemia): > 100 µM
TGI (HL-60(TB) leukemia): > 100 µM
GI50 (HCT-116 colon): > 100 µM
TGI (HCT-116 colon): > 100 µM
GI50 (HCT-15 colon): > 100 µM
TGI (HCT-15 colon): > 100 µM
GI50 (SK-MEL-2 melanoma): > 100 µM
TGI (SK-MEL-2 melanoma): > 100 µM
GI50 (MOLT-4 leukemia): > 100 µM
TGI (MOLT-4 leukemia): > 100 µM
GI50 (DU-145 prostate): > 100 µM
TGI (DU-145 prostate): > 100 µM
GI50 (LOX IMVI melanoma): > 100 µM
TGI (LOX IMVI melanoma): > 100 µM
GI50 (TK-10 renal): > 100 µM
TGI (TK-10 renal): > 100 µM
GI50 (MALME-3M melanoma): > 100 µM
TGI (MALME-3M melanoma): > 100 µM
GI50 (NCI-H460 lung): > 100 µM
TGI (NCI-H460 lung): > 100 µM
GI50 (U251 CNS): > 100 µM
TGI (U251 CNS): > 100 µM
GI50 (MDA-MB-435): > 100 µM
TGI (MDA-MB-435): > 100 µM
GI50 (MCF7 breast): > 100 µM
TGI (MCF7 breast): > 100 µM
GI50 (CAKI-1 renal): > 100 µM
TGI (CAKI-1 renal): > 100 µM
GI50 (786-0 renal): > 100 µM
TGI (786-0 renal): > 100 µM
GI50 (SNB-75 CNS): > 100 µM
TGI (SNB-75 CNS): > 100 µM
GI50 (NCI-H23 lung): > 100 µM
TGI (NCI-H23 lung): > 100 µM
GI50 (HT29 colon): > 100 µM
TGI (HT29 colon): > 100 µM
GI50 (OVCAR-4 ovarian): > 100 µM
TGI (OVCAR-4 ovarian): > 100 µM
GI50 (NCI/ADR-RES ovarian): > 100 µM
TGI (NCI/ADR-RES ovarian): > 100 µM
GI50 (EKVX NSCLC): > 100 µM
TGI (EKVX NSCLC): > 100 µM
GI50 (SN12C renal): > 100 µM
TGI (SN12C renal): > 100 µM
GI50 (UO-31 renal): > 100 µM
TGI (UO-31 renal): > 100 µM
GI50 (SK-MEL-28 melanoma): > 100 µM
TGI (SK-MEL-28 melanoma): > 100 µM
GI50 (SR leukemia): > 100 µM
TGI (SR leukemia): > 100 µM
GI50 (HOP-92 NSCLC): > 100 µM
TGI (HOP-92 NSCLC): > 100 µM
GI50 (A498 renal): > 100 µM
TGI (A498 renal): > 100 µM
GI50 (SK-OV-3 ovarian): > 100 µM
TGI (SK-OV-3 ovarian): > 100 µM
GI50 (OVCAR-5 ovarian): > 100 µM
TGI (OVCAR-5 ovarian): > 100 µM
GI50 (RPMI-8226 leukemia): > 100 µM
TGI (RPMI-8226 leukemia): > 100 µM
GI50 (SF-268 CNS): > 100 µM
TGI (SF-268 CNS): > 100 µM
GI50 (KM12 colon): > 100 µM
TGI (KM12 colon): > 100 µM
GI50 (SNB-19 CNS): > 100 µM
TGI (SNB-19 CNS): > 100 µM
GI50 (SK-MEL-5 melanoma): > 100 µM
TGI (SK-MEL-5 melanoma): > 100 µM
GI50 (SW-620 colon): > 100 µM
TGI (SW-620 colon): > 100 µM
GI50 (PC-3 prostate): > 100 µM
TGI (PC-3 prostate): > 100 µM
GI50 (T-47D breast): > 100 µM
TGI (T-47D breast): > 100 µM
